{"source": "paper PMC5974469", "about": "“A New Family of Capsule Polymerases Generates Teichoic Acid-Like Capsule Polymers in Gram-Negative Pathogens” (mBio, 2018)", "target": "T1, Cps3D (Actinobacillus pleuropneumoniae, UniProt A0A2S0ETM3)", "T1 construct": "MBP-Cps3D-His6 (177 kDa), full-length, tags kept, expressed in E. coli M15[pREP4]", "T1 sequence (A0A2S0ETM3 entry or part of it)": "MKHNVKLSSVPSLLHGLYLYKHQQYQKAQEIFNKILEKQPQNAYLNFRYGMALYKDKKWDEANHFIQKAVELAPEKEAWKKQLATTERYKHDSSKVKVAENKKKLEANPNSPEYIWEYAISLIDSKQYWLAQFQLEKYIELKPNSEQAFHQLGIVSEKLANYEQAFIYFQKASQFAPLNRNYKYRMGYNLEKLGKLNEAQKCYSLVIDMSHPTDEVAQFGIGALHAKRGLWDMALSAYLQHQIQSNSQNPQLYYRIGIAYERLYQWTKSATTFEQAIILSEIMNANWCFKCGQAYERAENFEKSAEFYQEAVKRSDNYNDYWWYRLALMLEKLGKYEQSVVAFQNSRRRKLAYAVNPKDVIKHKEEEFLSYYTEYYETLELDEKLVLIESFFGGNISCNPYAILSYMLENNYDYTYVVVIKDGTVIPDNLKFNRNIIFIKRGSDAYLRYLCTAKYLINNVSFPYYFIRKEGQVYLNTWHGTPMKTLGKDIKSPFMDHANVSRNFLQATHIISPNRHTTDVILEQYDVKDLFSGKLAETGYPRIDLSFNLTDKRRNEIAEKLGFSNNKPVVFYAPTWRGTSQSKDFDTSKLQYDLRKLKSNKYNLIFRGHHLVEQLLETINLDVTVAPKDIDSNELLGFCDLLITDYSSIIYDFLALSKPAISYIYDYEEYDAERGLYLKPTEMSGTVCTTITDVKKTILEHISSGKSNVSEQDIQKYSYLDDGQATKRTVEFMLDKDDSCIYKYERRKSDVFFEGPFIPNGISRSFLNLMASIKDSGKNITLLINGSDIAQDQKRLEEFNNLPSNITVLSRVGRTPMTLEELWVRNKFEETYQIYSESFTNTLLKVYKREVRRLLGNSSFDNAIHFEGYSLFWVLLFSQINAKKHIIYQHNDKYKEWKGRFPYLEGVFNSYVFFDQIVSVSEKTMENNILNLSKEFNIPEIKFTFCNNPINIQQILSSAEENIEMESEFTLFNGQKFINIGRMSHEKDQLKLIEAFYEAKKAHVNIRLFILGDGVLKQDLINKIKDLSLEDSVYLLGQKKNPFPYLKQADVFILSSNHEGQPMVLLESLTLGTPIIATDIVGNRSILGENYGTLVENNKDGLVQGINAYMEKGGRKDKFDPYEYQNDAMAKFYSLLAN", "experiment": "HPLC-AEC of donor consumption, PAGE and NMR of polymer", "format": "biochemical", "conditions": "20 mM Tris pH 8.0, 10 mM MgCl2, 1 mM DTT, 37 °C; no primer; with UDP-Gal", "data": [{"smiles": "Nc1ccn([C@@H]2O[C@H](COP(=O)(O)OP(=O)(O)OC[C@H](O)CO)[C@@H](O)[C@H]2O)c(=O)n1", "note": "(racemic) [CDP-glycerol]", "values": [{"measurement": "HPLC-AEC of donor consumption, PAGE and NMR of polymer", "result": "both enantiomers are substrates for the enzymes as shown by the complete consumption of CDP-glycerol"}]}]}
